The source of these data is patent US9469831B2, “Lactobacillus plantarum cells with improved resistance to high concentrations of ethanol” (Chr. Hansen A/S, priority 2011, dated 2016).

Experiment [1] relates to Lactobacillus plantarum CHCC14158. Kind of experiment: D-cycloserine resistance assay (OD600 growth in GJ-5 medium). Type of experiment: cell-based. The note with it: Lactiplantibacillus plantarum, strain CHCC14158, 24 hours growth at 18° C., vs 0 μg/ml D-cycloserine, read-out: amount of D-cycloserine that reduces the OD600 measured growth with 50%. The method, then:
(§1) Medium: The medium is the known Grape Juice GJ-5 medium described in column 20, lines 10 to 20 of U.S. Pat. No. 7,112,346 (Chr. Hansen A/S).
(§2) As described in lines 10 to 20 of U.S. Pat. No. 7,112,346—the GJ-5 medium has the following composition: • Grape juice concentrate 70.0 g • Yeast paste 30.0 g • Tween 80 0.5 g • MnSO4H2O 0.1 g • Tap water 900.0 g
(§3) A Lactobacillus plantarum strain of interest is inoculated into 10 ml GJ-5 medium containing one of the following amounts of D-cycloserine: 0 μg/ml, 10 μg/ml, 20 μg/ml, 30 μg/ml, 50 μg/ml, 70 μg/ml, 100 μg/ml, 150 μg/ml or 200 μg/ml of D-cycloserine. The strain is grown 24 hours at 18° C. in the GJ-5 medium with the different concentrations of D-cycloserine.
(§4) After the 24 hours growth is OD600 measured for all samples.

The subject of experiment [2] is Lactobacillus plantarum CHCC14254. The experiment is described as above. Type of experiment: cell-based. The note with it: Lactiplantibacillus plantarum, strain CHCC14254, 24 hours growth at 18° C., vs 0 μg/ml D-cycloserine, read-out: amount of D-cycloserine that reduces the OD600 measured growth with 50%. The procedure: as §1, §2, §3, §4
Experiment [3] has as its system Lactobacillus plantarum CHCC14255. The experiment is described as above. Type of experiment: cell-based. The note with it: Lactiplantibacillus plantarum, strain CHCC14255, 24 hours growth at 18° C., vs 0 μg/ml D-cycloserine, read-out: amount of D-cycloserine that reduces the OD600 measured growth with 50%. The procedure:
as §1, §2, §3, §4

The subject of experiment [4] is Lactobacillus plantarum CHCC14158. Conditions: strain CHCC14158; GJ-5 medium with 11% ethanol, 3 days incubation at 25° C. The procedure:
(§5) Medium: The medium is the standard GJ-5 medium as used in Example 1 above.
(§6) A Lactobacillus plantarum cell that has an improved resistance towards ethanol as discussed herein—is herein defined as a Lactobacillus plantarum cell that can grow to an OD600 of at least 0.8 after 3 days incubation at 25° C. in the GJ-5 medium with 11% ethanol.

In experiment [5] the test system is Lactobacillus plantarum CHCC14254. The note with it: strain CHCC14254; GJ-5 medium with 11% ethanol, 3 days incubation at 25° C. The procedure:
as §5, §6

The subject of experiment [6] is Lactobacillus plantarum CHCC14255. The note with it: strain CHCC14255; GJ-5 medium with 11% ethanol, 3 days incubation at 25° C. The procedure: as §5, §6

Converted amounts (≈) assume the structure as drawn.

Turning to `N[C@@H]1CON=C1O` [D-cycloserine, D-4-amino-isoxazolidone], the figures for the IC50 in experiment [1], in experiment [2] and in experiment [3] were 60 to 65 µg/mL (≈ 588 to 637 µM), around 100 µg/mL (≈ 979 µM) and around 100 µg/mL (≈ 979 µM), respectively.
Take `CCO` [ethanol]: the “OD600 reached by growth in presence of ethanol” value is “around 0.65” in experiment [4], “at least 0.8” in experiment [5] and “more than 1” in experiment [6].
